Source: patent publication US5502035A, “N-terminus modified analogs of LHRH” (Tap Holdings Inc., priority 1994, dated 1996)
Starred links: 1 amine or outer side, 2 acyl side, 3 side chain; linkers in the order of their positions; H or OH if unused. Non-standard residues stand in square brackets, D forms with d. Residues, ends and D or L forms follow the SMILES beside them. Groups on a side chain read outwards from the residue. ξ: configuration not given here. *: point of attachment. Shikimoyl = O=C(C1=C[C@@H](O)[C@@H](O)[C@H](O)C1)*; ξTetrahydrofuran2carbonyl = O=C(C1CCCO1)*; dPhe(4-Cl) = N[C@H](Cc1ccc(Cl)cc1)C(=O)O; d2Nal = N[C@H](Cc1ccc2ccccc2c1)C(=O)O; Lys(iPr) = CC(C)NCCCC[C@H](N)C(=O)O; NMeY = CN[C@@H](Cc1ccc(O)cc1)C(=O)O; dCit = NC(=O)NCCC[C@@H](N)C(=O)O; d3Pal = N[C@H](Cc1cccnc1)C(=O)O; Suc = O=C(CCC(=O)[*:2])[*:1]; Nicotinoyl = O=C(c1cccnc1)*; azaGly = NNC(=O)O; Sar = CNCC(=O)O

What follows are molecules tested against T1, LHRH (Rattus norvegicus, UniProt P30969) (assay: in vitro test for LHRH antagonist potency (pA2)). Conditions: negative logarithm of the antagonist concentration required to shift the response curve produced by the agonist leuprolide to two-fold higher concentration.
T1 construct: endogenous in cells; host or cells: rat pituitary cells (own knowledge of the cited Haviv 1989 method)
T1 sequence (P30969 1-327): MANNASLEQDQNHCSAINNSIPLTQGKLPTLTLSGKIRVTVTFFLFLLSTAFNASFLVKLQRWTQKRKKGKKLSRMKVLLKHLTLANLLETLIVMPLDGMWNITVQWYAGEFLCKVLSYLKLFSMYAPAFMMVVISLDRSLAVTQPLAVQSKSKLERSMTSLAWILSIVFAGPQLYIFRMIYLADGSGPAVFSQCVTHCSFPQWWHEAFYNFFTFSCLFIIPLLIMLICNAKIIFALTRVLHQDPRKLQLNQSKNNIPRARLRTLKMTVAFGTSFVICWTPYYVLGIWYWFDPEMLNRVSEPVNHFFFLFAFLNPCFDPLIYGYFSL
Assay type: cell-based
Protocol: Representative compounds of the present invention were evaluated in an in vitro test for LHRH antagonist potency (pA2). The test employed the method detailed in F. Haviv, et al. J. Med. Chem., 32:2340-2344 (1989). The values of pA2 are the negative logarithms of the concentration of the particular antagonist test compound required to shift the response curve produced by the agonist leuprolide to two-fold higher concentration. (Leuprolide is the LHRH agonist having the structure 5-oxo-Pro^1 -His^2 -Trp^3 -Ser^4 -Tyr^5 -D-Leu^6 -Leu^7 -Arg^8 -Pro^9 -NHEt and is disclosed and claimed in U.S. Pat. No. 4,005,063.) Typically pA2 values of 9.5 or greater are indicative of good LHRH antagonist potency, with values of 10.0 or greater being preferred.

SMILES | Kb
CC(C)C[C@H](NC(=O)[C@@H](CCCCNC(=O)NNC(=O)c1cccnc1)NC(=O)[C@H](Cc1ccc(O)cc1)N(C)C(=O)[C@H](CO)NC(=O)[C@@H](Cc1cccnc1)NC(=O)[C@@H](Cc1ccc(Cl)cc1)NC(=O)[C@@H](Cc1ccc2ccccc2c1)NC(=O)CNC(=O)c1cccnc1)C(=O)N[C@@H](CCCCNC(C)C)C(=O)N1CCC[C@H]1C(=O)N[C@H](C)C(N)=O [Example 9, N-Nicotinyl-Gly-D2Nal-D4ClPhe-D3Pal-Ser-NMeTyr-DLys(Azagly-Nicotinyl)-Leu-Lys(N-epsilon-Isopropyl) -Pro-DAlaNH2] (Nicotinoyl-G[d2Nal][dPhe(4-Cl)][d3Pal]S[NMeY][dK]([azaGly-Nicotinoyl])L[Lys(iPr)]P[dA]-NH2) | 0.0347 nM
CC(C)C[C@H](NC(=O)[C@@H](CCCNC(N)=O)NC(=O)[C@H](Cc1ccc(O)cc1)N(C)C(=O)[C@H](CO)NC(=O)[C@@H](Cc1cccnc1)NC(=O)[C@@H](Cc1ccc(Cl)cc1)NC(=O)[C@@H](Cc1ccc2ccccc2c1)NC(=O)CNC(=O)C1CCCO1)C(=O)N[C@@H](CCCNC(=N)N)C(=O)N1CCC[C@H]1C(=O)N[C@H](C)C(N)=O (stereo partly drawn) [Example 13a, N-(R,S)-Tetrahydro-Fur-2-oyl-Gly-D2Nal-D4ClPhe-D3Pal-Ser-NMeTyr-DCit-Leu-Arg-Pro-DAlaNH2] (ξTetrahydrofuran2carbonyl-G[d2Nal][dPhe(4-Cl)][d3Pal]S[NMeY][dCit]LRP[dA]-NH2) | 0.00447 nM
CC(C)C[C@H](NC(=O)[C@@H](CCCNC(N)=O)NC(=O)[C@H](Cc1ccc(O)cc1)N(C)C(=O)[C@H](CO)NC(=O)[C@@H](Cc1cccnc1)NC(=O)[C@@H](Cc1ccc(Cl)cc1)NC(=O)[C@@H](Cc1ccc2ccccc2c1)NC(=O)CNC(=O)C1=C[C@@H](O)[C@@H](O)[C@H](O)C1)C(=O)N[C@@H](CCCNC(=N)N)C(=O)N1CCC[C@H]1C(=O)N[C@H](C)C(N)=O [Example 13b, N-Shikimyl-Gly-D2Nal-D4ClPhe-D3Pal-Ser-NMeTyr-DCit-Leu-Arg-Pro-DAlaNH2] (Shikimoyl-G[d2Nal][dPhe(4-Cl)][d3Pal]S[NMeY][dCit]LRP[dA]-NH2) | 0.00955 nM
CC(C)C[C@H](NC(=O)[C@@H](CCCNC(N)=O)NC(=O)[C@H](Cc1ccc(O)cc1)N(C)C(=O)[C@H](CO)NC(=O)[C@@H](Cc1cccnc1)NC(=O)[C@@H](Cc1ccc(Cl)cc1)NC(=O)[C@@H](Cc1ccc2ccccc2c1)NC(=O)CNC(=O)c1cccnc1)C(=O)N[C@@H](CCCNC(=N)N)C(=O)N1CCC[C@H]1C(=O)N[C@H](C)C(N)=O [Example 13c, N-Nicotinyl-Gly-D2Nal-D4ClPhe-D3Pal-Ser-NMeTyr-DCit-Leu-Arg-Pro-DAlaNH2] (Nicotinoyl-G[d2Nal][dPhe(4-Cl)][d3Pal]S[NMeY][dCit]LRP[dA]-NH2) | 0.00355 nM
CC(C)C[C@H](NC(=O)[C@@H](CCCNC(N)=O)NC(=O)[C@H](Cc1ccc(O)cc1)N(C)C(=O)[C@H](CO)NC(=O)[C@@H](Cc1cccnc1)NC(=O)[C@@H](Cc1ccc(Cl)cc1)NC(=O)[C@@H](Cc1ccc2ccccc2c1)NC(=O)CNC(=O)CCC(=O)O)C(=O)N[C@@H](CCCNC(=N)N)C(=O)N1CCC[C@H]1C(=O)N[C@H](C)C(N)=O [Example 13d, N-Succinyl-Gly-D2Nal-D4ClPhe-D3Pal-Ser-NMeTyr-DCit-Leu-Arg-Pro-DAlaNH2] (Suc-G[d2Nal][dPhe(4-Cl)][d3Pal]S[NMeY][dCit]LRP[dA]-NH2) | 0.0407 nM
CC(C)C[C@H](NC(=O)[C@@H](CCCNC(N)=O)NC(=O)[C@H](Cc1ccc(O)cc1)N(C)C(=O)[C@H](CO)NC(=O)[C@@H](Cc1cccnc1)NC(=O)[C@@H](Cc1ccc(Cl)cc1)NC(=O)[C@@H](Cc1ccc2ccccc2c1)NC(=O)[C@@H](C)NC(=O)C1=C[C@@H](O)[C@@H](O)[C@H](O)C1)C(=O)N[C@@H](CCCNC(=N)N)C(=O)N1CCC[C@H]1C(=O)N[C@H](C)C(N)=O [Example 13e, N-Shikimyl-DAla-D2Nal-D4ClPhe-D3Pal-Ser-NMeTyr-DCit-Leu-Arg-Pro-DAlaNH2] (Shikimoyl-[dA][d2Nal][dPhe(4-Cl)][d3Pal]S[NMeY][dCit]LRP[dA]-NH2) | 0.0316 nM
CC(C)C[C@H](NC(=O)[C@@H](CCCNC(N)=O)NC(=O)[C@H](Cc1ccc(O)cc1)N(C)C(=O)[C@H](CO)NC(=O)[C@@H](Cc1cccnc1)NC(=O)[C@@H](Cc1ccc(Cl)cc1)NC(=O)[C@@H](Cc1ccc2ccccc2c1)NC(=O)[C@@H](CO)NC(=O)C1=C[C@@H](O)[C@@H](O)[C@H](O)C1)C(=O)N[C@@H](CCCNC(=N)N)C(=O)N1CCC[C@H]1C(=O)N[C@H](C)C(N)=O [Example 13f, N-Shikimyl-DSer-D2Nal-D4ClPhe-D3Pal-Ser-NMeTyr-DCit-Leu-Arg-Pro-DAlaNH2] (Shikimoyl-[dS][d2Nal][dPhe(4-Cl)][d3Pal]S[NMeY][dCit]LRP[dA]-NH2) | 0.0178 nM
CC(C)C[C@H](NC(=O)[C@@H](CCCCNC(=O)C1=C[C@@H](O)[C@@H](O)[C@H](O)C1)NC(=O)[C@H](Cc1ccc(O)cc1)N(C)C(=O)[C@H](CO)NC(=O)[C@@H](Cc1cccnc1)NC(=O)[C@@H](Cc1ccc(Cl)cc1)NC(=O)[C@@H](Cc1ccc2ccccc2c1)NC(=O)CN(C)C(=O)c1cccnc1)C(=O)N[C@@H](CCCNC(=N)N)C(=O)N1CCC[C@H]1C(=O)N[C@H](C)C(N)=O [Example 14a, N-Nicotinyl-Sar-D2Nal-D4ClPhe-D3Pal-Ser-NMeTyr-DLys(Shik)-Leu-Arg-Pro-DAlaNH2] (Nicotinoyl-[Sar][d2Nal][dPhe(4-Cl)][d3Pal]S[NMeY][dK](Shikimoyl)LRP[dA]-NH2) | 0.0132 nM
CC(C)C[C@H](NC(=O)[C@@H](CCCCNC(=O)C1=C[C@@H](O)[C@@H](O)[C@H](O)C1)NC(=O)[C@H](Cc1ccc(O)cc1)N(C)C(=O)[C@H](CO)NC(=O)[C@@H](Cc1cccnc1)NC(=O)[C@@H](Cc1ccc(Cl)cc1)NC(=O)[C@@H](Cc1ccc2ccccc2c1)NC(=O)CN(C)C(=O)C1=C[C@@H](O)[C@@H](O)[C@H](O)C1)C(=O)N[C@@H](CCCNC(=N)N)C(=O)N1CCC[C@H]1C(=O)N[C@H](C)C(N)=O [Example 14b, N-Shikimyl-Sar-D2Nal-D4ClPhe-D3Pal-Ser-NMeTyr-DLys(Shik)-Leu-Arg-Pro-DAlaNH2] (Shikimoyl-[Sar][d2Nal][dPhe(4-Cl)][d3Pal]S[NMeY][dK](Shikimoyl)LRP[dA]-NH2) | 0.105 nM
CC(C)C[C@H](NC(=O)[C@@H](CCCCNC(=O)C1=C[C@@H](O)[C@@H](O)[C@H](O)C1)NC(=O)[C@H](Cc1ccc(O)cc1)N(C)C(=O)[C@H](CO)NC(=O)[C@@H](Cc1cccnc1)NC(=O)[C@@H](Cc1ccc(Cl)cc1)NC(=O)[C@@H](Cc1ccc2ccccc2c1)NC(=O)[C@@H](C)NC(=O)c1cccnc1)C(=O)N[C@@H](CCCNC(=N)N)C(=O)N1CCC[C@H]1C(=O)N[C@H](C)C(N)=O [Example 14c, N-Nicotinyl-DAla-D2Nal-D4ClPhe-D3Pal-Ser-NMeTyr-DLys(Shik)-Leu-Arg-Pro-DAlaNH2] (Nicotinoyl-[dA][d2Nal][dPhe(4-Cl)][d3Pal]S[NMeY][dK](Shikimoyl)LRP[dA]-NH2) | 0.00537 nM
